Where two headings read alike, the source gives them in different places. Values belong to the molecule of their own block, whether it stands above or below them.
Experiments:
[1] = Plasma pharmacokinetics in vivo; conditions: SD, rat, rats
Description: SD rats (n = 6) were intragastrically administered Cbz-dFdC (22 mg/kg) and intravenously injected with dFdC (15 mg/kg), and 150 μL blood samples were collected from the retro-orbital route in the right eye at 0, 5, 10, 20, and 30 min and at 1, 2, 4, 6, 12, 24, and 48 h, using heparinized tubes. Without delay, the blood was directly centrifuged at 8000× g at 4 °C for 5 min. Then, the supernatant plasma was collected and immediately extracted using a previously established method or was frozen at −80 °C until further analysis.

[2] = Tissue distribution (liver, kidney, intestine); assay type: in vivo, SD rats; conditions: rats; drug concentration in tissue lower than plasma concentration
Description: In order to investigate the drug distribution in different tissues and the relationship between CES1 activity and tissue concentration, we conducted tissue distribution experiments. The SD rats were divided into six groups (n = 6 for each group). After a single intragastric administration of Cbz-dFdC (22 mg/kg) and a single injected administration of dFdC (15 mg/kg), the SD rats were sacrificed at 0.5 h, 1.5 h, and 4 h, and the liver, kidney, and intestine were collected. The liver was perfused with ice-cold normal saline and then removed, followed by ice-cold normal saline cleaning. The kidney and intestine were directly removed and then washed with ice-cold normal saline. All of the above operations were carried out on ice, and the removed tissue was stored in an ice bath. The liver, kidney, and intestine were cut and crushed, homogenized with an appropriate amount of phosphate buffer by a homogenizer, and then diluted 5 times with ice-cold PBS buffer (in an ice bath). The tissue homogenates were determined with a BCA kit for protein concentration, a CES1 kit for CES1 activity, and UFLC–MS/MS for drug tissue concentration after pretreatment; the pretreatment method was reported previously.

[3] = system: human HepG2 cell line; assay: CCK-8 tumor cell growth inhibition assay; assay type: cell-based; conditions: HepG2, CCK-8, concentration-dependent
Description: (§1) The cells were cultured on a 96-well plate for 4 h for each well. Then, dimethyl sulfoxide solution containing 0.1–100 mM of Cbz-dFdC and dFdC was diluted 1000 times with the medium before administration. A total of 200 uL of medium containing Cbz-dFdC and dFdC was added per well (n = 6). The medium with drugs was discarded, and 10% CCK-8 solution was added. Then, the absorbance value was read at a wavelength of 450 nm after incubation at 37 °C, for 30 min. The drug concentration of Cbz-dFdC and dFdC in cell were determined by a previously established method.

[4] = system: HepG2 cells; assay: Cell uptake in HepG2 cells; assay type: cell-based, human
Description: as §1

[5] = design: method as in PMID 22099048; conditions: humans, after intravenous injection; cited from earlier work
[6] = design: method as in PMID 22099048; conditions: rats, after intravenous injection; cited from earlier work
[7] = design: method as in PMID 22099048; conditions: cited from earlier work
[8] = system: cytidine kinase; design: method as in PMID 1718594, PMID 1740680, PMID 8033147, PMID 12127861, PMID 23230131; conditions: after intravenous injection; cited from earlier work
[9] = substrate: O=C(Nc1ccn([C@@H]2O[C@H](CO)[C@@H](O)C2(F)F)c(=O)n1)OCc1ccccc1; assay: Enzymatic kinetics in vitro, human CES1 recombinase; assay type: in vitro ADME; conditions: other: Human CES1 Recombinase, 37 °C, 30 min, 5–200 μM Cbz-dFdC
Description: The SD rats without any treatment were sacrificed after adapting to the environment. Blank blood, the liver, the kidney, and the intestine were collected and treated as described in Section 4.4. Part of the homogenate was removed for centrifugation for 20 min at 9000× g at 4 °C, and the supernatant was obtained as tissue S9. The tissue homogenate and S9 were diluted to […] after the protein concentration was determined by the BCA kit (Abcam, Cambridge, MA, USA). Each matrix consisted of 45 uL of the matrix mixed with 5 uL of the drug dissolved in normal saline solution for about 3 min, followed by incubation at 37 °C in a water bath. Then, acetonitrile containing the internal standard was added to terminate the reaction. Human tissue S9 and human CES1 recombinase purchased from the Ruid Liver Disease Research Co., Ltd. (Shanghai, China) were incubated under the same conditions. An enzyme kinetic study was obtained from the matrix following incubation at 37 °C for 30 min with 5, 10, 20, 50, 100, or 200 μM of Cbz-dFdC. We estimated the parameters and simulated curves according to the Eadie–Hofstee method.

[10] = iv, plasma, after i.v. dFdC 15 mg/kg
[11] = plasma, 15 mg/kg, after dFdC intravenous injection
[12] = plasma, oral, 22 mg/kg, dFdC metabolized from Cbz-dFdC after i.g. Cbz-dFdC
[13] = po, plasma analyte after i.g. Cbz-dFdC 22 mg/kg

AUC(0-inf) [1, 10]: 22700 ng·h/mL
Cmax [1, 10]: 14100 ng/mL
Tmax [1, 10]: 0.083 h
half-life [1, 10]: 10.6 ± 1.86 h
concentration at 12 h [1, 11]: ~200 ng/mL
concentration at 48 h [1, 11]: ~40 ng/mL
concentration at 24 h ([1]; plasma, intravenous, after i.v. dFdC 15 mg/kg): ~130 ng/mL
C0 ([1]; plasma, iv, after i.v. dFdC 15 mg/kg, read-out: initial plasma concentration): ~15000 ng/mL
concentration at 24 h ([1]; plasma, oral, 22 mg/kg, after i.g. Cbz-dFdC): ~300 ng/mL
concentration at 12 h [1, 12]: ~600 ng/mL
concentration at 48 h [1, 12]: ~130 ng/mL
AUC(0-inf) [1, 13]: 27500 ng·h/mL
Cmax [1, 13]: 1660 ± 432 ng/mL
Tmax [1, 13]: 4 h
half-life [1, 13]: 10.4 ± 0.91 h
tissue penetration [2]: weak tissue penetration
Molecule: Nc1ccn([C@@H]2O[C@H](CO)[C@@H](O)C2(F)F)c(=O)n1 [dFdC, Gemcitabine]
cytotoxicity / tumor cell growth inhibition [3]: better than that of Cbz-dFdC
intracellular concentration (cell uptake) [4]: higher than that of dFdC, after the Cbz-dFdC treatment
half-life [5]: 0.2 h
half-life [6]: 2.0 h
toxic effects on the gastrointestinal tract [7]: serious toxic effects on the gastrointestinal tract
active monophosphate, diphosphate and triphosphate metabolites, share of the dose [8]: about 10%

B1: Human CES1 Recombinase (Homo sapiens) (protein)
chain: GHPSSPPVVDTVHGKVLGKFVSLEGFAQPVAIFLGIPFAKPPLGPLRFTPPQPAEPWSFVKNATSYPPMCTQDPKAGQLLSELFTNRKENIPLKLSEDCLYLNIYTPADLTKKNRLPVMVWIHGGGLMVGAASTYDGLALAAHENVVVVTIQYRLGIWGFFSTGDEHSRGNWGHLDQVAALRWVQDNIASFGGNPGSVTIFGESAGGESVSVLVLSPLAKNLFHRAISESGVALTSVLVKKGDVKPLAEQIAITAGCKTTTSAVMVHCLRQKTEEELLETTLKMKFLSLDLQGDPRESQPLLGTVIDGMLLLKTPEELQAERNFHTVPYMVGINKQEFGWLIPMQLMSYPLSEGQLDQKTAMSLLWKSYPLVCIAKELIPEATEKYLGGTDDTVKKKDLFLDLIADVMFGVPSVIVARNHRDAGAPTYMYEFQYRPSFSSDMKPKTVIGDHGDELFSVFGAPFLKEGASEEEIRLSKMVMKFWANFARNGNPNGEGLPHWPEYNQKEGYLQIGANTQAAQKLKDKEVAFWTNLFAKKAVEKPPQTEHIEL
notes: purchased Ruid Liver Disease Research Co., Ltd. (Shanghai, China)
Km ([9]; appearance of dFdC): 107.2 µM
Vmax/Km ([9]; appearance of dFdC): 36500 µL/min/mg
Km ([9]; disappearance of Cbz-dFdC): 258.6 µM
Vmax/Km ([9]; disappearance of Cbz-dFdC): 72700 µL/min/mg
